# Measurements from US20160144055A1, “GENE THERAPY VECTOR FOR TREATMENT OF STEROID GLAUCOMA” (priority 2009, published 2016).
# Values joined by “and” are separate entries in the source; they are usually repeats but may differ in a detail not shown here. Identical values can stand only once. Like-named read-outs stand apart in the source and are kept apart here.
# Key:
# [1] = test system: MMP1 expression in primary HTM cells; experiment: Endogenous MMP1 expression in glucocorticoid-treated primary HTM cells (real-time TaqMan PCR); type: cell-based, human
# Protocol: To generate primary HTM cells, the trabecular meshwork tissue was dissected from residual cornea rims after surgical corneal transplantation at the University of North Carolina Eye Clinic, Chapel Hill, N.C., United States of America. Trabecular meshworks were isolated from surrounding tissue, cut into small pieces and treated with 1 mg/ml collagenase type IV (Worthington, Lakewood, N.J., United States of America), as previously described (Vittitow et al., Mol Via 2002; 8:32-44). Cells were maintained at 37° C., 7% CO2 in MEM Richter's modification medium (HyClone, Thermo Fisher Scientific, Waltham, Mass., United States of America) supplemented with 20% FBS and 50 ug/ml gentamicin (Gibco Invitrogen, Carlsbad, Calif., United States of America). At confluency, cells were passed and maintained in the same medium but with 10% FBS (complete medium). All cells were used at passages 4 to 6. These outflow pathway cultures include cells from the three distinct regions of the trabecular meshwork plus cells lining the Schlemm's canal (SC). Because most of the cells in these cultures come from the trabecular meshwork they are commonly referred to as trabecular meshwork cells. The cells used in this study were from a person (HTM-109), a person (HTM-95), a person (HTM-106) and a person (HTM-140).
# Drug treatments on the HTM cells were conducted in complete media. HTM cells were grown to pre-confluency and exposed to drugs as follows. Treatment with dexamethasone (DEX; Sigma, St. Louis, Mo., United States of America) was conducted at a final concentration of 0.1 uM. DEX was reconstituted in absolute ethanol at 0.1 mM and diluted 1,000-fold into complete media every 48 to 72 hours for the duration of the experiment. Treatment with triamcinolone acetonide (Kenacort-A; Bristol-Myers Squibb, New York, N.Y., United States of America) was performed at a final concentration of 0.1 mg/ml. Kenacort-A 40 mg/ml suspension was well mixed and diluted into complete medium 400-fold at the time of use. The concentration of 0.1 mg/ml triamcinolone acetonide was chosen because intravitreal injections of 1 mg/ml are widely used in the clinical setting, which would result in a lower concentration of the steroid in the aqueous humor. In addition, the concentration of 0.1 mg/ml has been successfully studied in trabecular meshwork cells (Fan B J et al., Invest Ophthalmol Vis Sci. 2008; 49:1886-1897). Treatment with prednisolone was conducted at a final concentration of 200 uM (80 μg/ml). Prednisolone 21-acetate (Sigma) was reconstituted in ethanol at 200 mM (80 mg/ml) as a suspension and mixed well prior dilution of 1,000-fold into the culture medium. The drugs were exposed to the cells for the period of time described in results. Untreated control dishes received the same volume of absolute ethanol (drug vehicle) under identical conditions.
# HTM cells were scraped from tissue culture dishes with guanidine thiocyanate buffer (RLT, Qiagen, Valencia, Calif., United States of America). Total RNA was extracted by loading the solution onto a QIA Shredder™ column (Qiagen) and continued by the use of the RNeasy Mini kit with on-column RNase-free DNAse digestion according to manufacturer's recommendations (Qiagen). Purified RNA was eluted in 30 ul RNase-free water and concentration measured with a NanoDrop ND-100 spectrophotometer (Thermo Fisher Scientific). For the tissue, human trabecular meshworks were excised from one week RNAlater (Ambion Applied Biosystems, Austin, Tex., United States of America) immersed anterior segments. One half of the isolated trabecular meshwork tissue was homogenized on 350 μl of RLT and RNA extraction continued as described for the cells. Recoveries were between 1.4 to 2 ug of RNA per human trabecular meshwork. […]
# sheep eyes = conditions: cited from earlier work
# [2] = test system: sheep eyes with triamcinolone-induced ocular hypertension; conditions: for IOP on Day 4 after bilateral sub-Tenon injection: n=4, before virus
# Protocol: All animal experiments were performed in accordance with the Association for Research in Vision and Ophthalmology (ARVO) guidelines. A total of 18 healthy (female) sheep (Corriedale breed) between 12 and 24 months of age, and weighing 35 to 40 kg, were selected from a local ranch in Corrientes, Argentina for this study. The eyes and general health of the animals were considered normal by an ophthalmologist and a veterinarian, respectively. Sheep were tagged for individual identification on their ear lobes and herded from pasture whenever it was necessary to 1) topically instill prednisolone, 2) inject a sub-Tenon depot of triamcinolone acetonide, 3) inject adenoviral vectors carrying the MMP1 transgene intracamerally via the cornea, or 4) measure IOP by applanation tonometry. To apply prednisolone, the sheep were guided into a funnel corral ending in a loose-fitting yoke. This arrangement allowed movement and holding of the head by one person while another instilled the drops. To measure IOP with a Perkins tonometer, the sheep were also guided into the funnel corral and then into the neck yoke. For the sub-Tenon injection of triamcinolone, and the trans-corneal injections of adenoviral vectors, sheep were anesthetized topically. Between all procedures, the sheep were free to pasture.
# In those sheep in which triamcinolone was used to induce ocular hypertension, the following general protocol was applied. Two drops of proparacaine (0.5%) were topically instilled to the ocular surface. Then, a single 1-ml injection of sterile triamcinolone acetonide (40 mg/ml, or 4%; Bristol-Myers Squibb Co., Princeton, N.J., United States of America) was administered via sub-Tenon injection using a 30G needle inserted 5 mm from the limbus.
# For the injections, the distance from the limbus was determined from the width of a 5 mm×30 mm Schirmer strip that was held between the limbus and the injection site. The conjunctiva at the injection site was grasped with fine forceps and an initial oblique conjunctival puncture was made with the needle bevel facing upwards. […] The needle was pushed through Tenon's capsule until the tip reached the sclera (as determined by feel). Care was taken to avoid puncturing the sclera itself. Also, since Tenon's capsule consists of several layers, care was also taken to administer a sub-Tenon (to create a juxta-scleral depot), and not an intra-Tenon's injection. Immediately following the injection the needle was rapidly withdrawn. The volume injected (1 ml) yielded a characteristic 180°-240° quasi-donut-shaped bolus of fluid around the limbus. Each injected eye then received drops of TOBREX® (tobramycin ophthalmic solution, 0.3%, Alcon Laboratories, Inc., Fort Worth, Tex., United States of America).
# Animals were led to a funnel corral and their heads were suitably oriented within a neck yoke to enable an ophthalmologist to measure IOP with the Perkins tonometer. Before the IOP measurement, 2 drops of topical 0.5% proparacaine (Alcon Argentina) followed by 2 drops of 0.25% fluorescein were instilled. Two sets of measurements were taken on each eye alternating first one eye and then the other. All IOP measurements were taken between 2 PM and 4 PM every 2 or 3 days. The Perkins tonometry readings were converted to mmHg as described in detail previously (Kass et al., Arch Ophthalmol. 2002; 120:701-713).
# Details of the design, construction, characterization and titration of the steroid-inducible MMP1 adenoviruses are provided in Example 2, above. At the time of viral administration, an Eppendorf™ tube containing the frozen virus suspension was thawed in the field as the sheep were immobilized within a narrow passage ending in a yoke. Two drops of topical proparacaine 0.5% (Alcon, Argentina) were instilled on the eyes as an anesthetic. Following this 30 μl of the virus suspension was injected into the eye using a Hamilton syringe with a 28G needle.
# [3] = test system: sheep eyes treated with triamcinolone or prednisolone; experiment: IOP in sheep given triamcinolone in one eye and prednisolone in the other, with Ad vector; type: in vivo, sheep (Ovis aries)
# Text: After determining the baseline measurement of IOP over the course of several days, two drops of 0.5% prednisolone acetate (Ultracortenol; Novartis Ophthalmics, Hettlingen, Switzerland) was topically instilled 3-times daily at 7 AM, 2 PM, and 7 PM for durations that lasted for 10-15 days depending on the experiment. In some experiments, prednisolone was instilled bilaterally; in others only one eye received the corticosteroid.
# The injection procedure took less than 30 seconds.
# Additional experiments (employing 2 separate protocols, each on one sheep) tested the effects of the injection of Ad virus carrying active MMP1 transgene on the IOP of contralateral eyes treated with unilateral triamcinolone and unilateral prednisolone. In the first protocol of this set, one eye of a sheep was administered triamcinolone via a sub-Tenon injection two weeks before the start of IOP measurements. The point at which IOP measurements were initiated was designated “Day 0” of the experiment. […] After recording these measurements, thrice daily instillations of prednisolone were begun on eye OS. Three-days later, when the IOP's of both eyes were nearly identical, Ad virus carrying active MMP1 transgene was bilaterally injected into the anterior chambers of the eyes. […] At the point of virus injection, IOP of eye OD had been elevated for 17 days; after virus injection, IOP was reduced up to Day 24. […]
Structure (SMILES),"MMP1 expression, RQ values (18S normalized MMP1 cDNA) ([1]; 0.1 μM DEX, 3 days, HTM-109 cells)","MMP1 expression, RQ values (18S normalized MMP1 cDNA) ([1]; 0.1 μM DEX, 6 days, HTM-109 cells)","MMP1 expression, RQ values (18S normalized MMP1 cDNA) ([1]; DEX removed from medium at 3 days, measured at day 6)",downregulation of MMP1 at the transcriptional level ([1]; DEX-treated cells for 6 days),"MMP1 cDNA levels (RQ) ([1]; 80 μg/ml, 24 hours, HTM-109 cells)",downregulation of MMP1 at the transcriptional level ([1]; shorter time periods),"IOP increase (sheep eyes; 0.5% topically three times daily, within 2 weeks)",incidence of intraocular pressure elevation in treated eyes (sheep eyes; 0.5% topically three times daily),time for IOP to decline to baseline after discontinuation (sheep eyes; in vivo),"MMP1 cDNA levels (RQ) ([1]; 0.1 mg/ml, 12 hours, HTM-109 cells)",IOP 15 days after sub-Tenon drug injection ([2]; FIG. 9),"IOP of the fellow eyes on Day 18 ([2]; depot nearly consumed, eyes had also received Ad vectors on Day 4, n=4 each)",IOP on Day 4 after bilateral sub-Tenon injection ([2]; eyes then injected with active MMP1 vector),IOP on Day 4 after bilateral sub-Tenon injection ([2]; eyes then injected with mutated MMP1 vector),"IOP on Day 4 after unilateral sub-Tenon injection ([2]; n=3, before null Ad injection)",time the depot subsisted in the eye as judged by IOP ([2]; sub-Tenon depot),time the depots subsisted as determined by the IOP ([2]; sub-Tenon depot),IOP of the triamcinolone-treated eye on Day 15 ([3]; FIGS. 11 and 12),IOP of the eye given triamcinolone relative to fellow eye on Day 0 ([3]; sub-Tenon injection two weeks before)
"C[C@@H]1C[C@H]2[C@@H]3CCC4=CC(=O)C=C[C@]4(C)[C@@]3(F)[C@@H](O)C[C@]2(C)[C@@]1(O)C(=O)CO [DEX, dexamethasone]",0.03±0.0002,0.002±0.0002,0.03±0.002,500 fold,–,–,–,–,–,–,–,–,–,–,–,–,–,–,–
"CC(=O)OCC(=O)[C@@]1(O)CC[C@H]2[C@@H]3CCC4=CC(=O)C=C[C@]4(C)[C@H]3[C@@H](O)C[C@@]21C [prednisolone, Prednisolone 21-acetate]",–,–,–,–,0.16±0.02,6.2 fold,approximately 2.5 fold,100%,1-3 weeks,–,–,–,–,–,–,–,–,–,–
CC1(C)O[C@@H]2C[C@H]3[C@@H]4CCC5=CC(=O)C=C[C@]5(C)[C@@]4(F)[C@@H](O)C[C@]3(C)[C@]2(C(=O)CO)O1 [triamcinolone acetonide],–,–,–,–,–,2.4 fold,–,–,–,0.42±0.1,less than 20 mmHg,10.5±0.4 mmHg and 12.4±0.2 mmHg,22.1±0.2 mmHg,22.6±0.8 mmHg,25.2±0.4 mmHg,14 to 20 days,2-3 weeks,above 25 mmHg,about twice that of eye OS
